In US3940382A, “1,2'-Di-N-substituted kanamycin B compounds” (Zaidan Hojin Biseibutsu Kagaku Kenkyu Kai, priority 1973, dated 1976):
Values after ≈ are worked out from the molar mass of the structure shown.

How the values were obtained:
drug-resistant bacteria = conditions: cited from earlier work
[1] = tested on: gram-negative and gram-positive bacteria sensitive to the kanamycins; conditions: cited from earlier work
[2] = tested on: kanamycin-resistant strains; conditions: strains phosphorylating the 3'-hydroxyl group of kanamycins; cited from earlier work
[3] = tested on: Escherichia coli JR66/W677; conditions: strain adenylylating the 2"-hydroxyl group; cited from earlier work
[4] = tested on: Escherichia coli K-12 ML 1410 R81; assay: MIC, serial dilution on nutrient agar; format: cell-based; conditions: 18 h, read-out: Minimum Inhibitory Concentrations
Bacillus anthracis = assay: microbe, parasite or virus in culture; format: cell-based; conditions: 18 h, read-out: Minimum Inhibitory Concentrations
Escherichia coli W677 = assay: MIC, serial dilution on nutrient agar; format: cell-based; conditions: Escherichia coli W677; nutrient agar, 37°C, 18 hours; read-out: Minimum Inhibitory Concentrations
[5] = tested on: Shigella dysenteriae JS 11910; assay: MIC, serial dilution on nutrient agar; format: cell-based; conditions: JS11910, 18 h, read-out: Minimum Inhibitory Concentrations
[6] = tested on: Pseudomonas aeruginosa TI-13; assay: MIC, serial dilution on nutrient agar; format: cell-based; conditions: TI13; Pseudomonas aeruginosa TI-13; nutrient agar, 37°C, 18 hours; read-out: Minimum Inhibitory Concentrations
[7] = tested on: Pseudomonas aeruginosa A3; assay: MIC, serial dilution on nutrient agar; format: cell-based; conditions: Pseudomonas aeruginosa, A3, 18 h, read-out: Minimum Inhibitory Concentrations
[8] = tested on: Escherichia coli K-12 ML 1410; assay: MIC, serial dilution on nutrient agar; format: cell-based; conditions: Escherichia coli, K12ML1410, 18 h, read-out: Minimum Inhibitory Concentrations
Proteus vulgaris OX 19 = assay: MIC, serial dilution on nutrient agar; format: cell-based; conditions: Proteus vulgaris, OX19, 18 h, read-out: Minimum Inhibitory Concentrations
Sarcina lutea PCI 1001 = assay: MIC, serial dilution on nutrient agar; format: cell-based; conditions: Micrococcus luteus, PCI1001, 18 h, read-out: Minimum Inhibitory Concentrations
[9] = tested on: Pseudomonas aeruginosa GN315; assay: MIC, serial dilution on nutrient agar; format: cell-based; conditions: Pseudomonas aeruginosa GN315; nutrient agar, 37°C, 18 hours; read-out: Minimum Inhibitory Concentrations
[10] = tested on: Bacillus subtilis PCI 219; assay: MIC, serial dilution on nutrient agar; format: cell-based; conditions: PCI219; Bacillus subtilis PCI 219; nutrient agar, 37°C, 18 hours; read-out: Minimum Inhibitory Concentrations
[11] = tested on: Pseudomonas aeruginosa 99; assay: MIC, serial dilution on nutrient agar; format: cell-based; conditions: Pseudomonas aeruginosa 99; nutrient agar, 37°C, 18 hours; read-out: Minimum Inhibitory Concentrations
[12] = tested on: Escherichia coli K-12 ML 1629; assay: MIC, serial dilution on nutrient agar; format: cell-based; conditions: Escherichia coli, K12ML1629, 18 h, read-out: Minimum Inhibitory Concentrations
[13] = tested on: Mycobacterium smegmatis ATCC 607; assay: MIC, serial dilution on nutrient agar; format: cell-based; conditions: Mycolicibacterium smegmatis, ATCC607; Mycobacterium smegmatis ATCC 607; nutrient agar, 37°C, 18 hours; read-out: Minimum Inhibitory Concentrations
[14] = tested on: Pseudomonas aeruginosa No.12; assay: MIC, serial dilution on nutrient agar; format: cell-based; conditions: Pseudomonas aeruginosa No.12; nutrient agar, 37°C, 18 hours; read-out: Minimum Inhibitory Concentrations
[15] = tested on: Klebsiella pneumoniae 22 -3038; assay: MIC, serial dilution on nutrient agar; format: cell-based; conditions: Klebsiella pneumoniae, 223038, 18 h, read-out: Minimum Inhibitory Concentrations
[16] = tested on: Escherichia coli LA290 R55; assay: MIC, serial dilution on nutrient agar; format: cell-based; conditions: LA290R55, 18 h, read-out: Minimum Inhibitory Concentrations
[17] = tested on: Bacillus cereus ATCC 10702; assay: MIC, serial dilution on nutrient agar; format: cell-based; conditions: Bacillus cereus, ATCC10702, 18 h, read-out: Minimum Inhibitory Concentrations
[18] = tested on: Staphylococcus aureus Smith; assay: MIC, serial dilution on nutrient agar; format: cell-based; conditions: Staphylococcus aureus Smith; nutrient agar, 37°C, 18 hours; read-out: Minimum Inhibitory Concentrations
[19] = tested on: Shigella flexneri 4b JS 11811; assay: MIC, serial dilution on nutrient agar; format: cell-based; conditions: 4BJS11811, 37°C, 18 hours, read-out: Minimum Inhibitory Concentrations
Method: (§1) The minimum inhibitory concentrations (mcg/ml) of 1,2'-di-N-[(S)-4-amino-2-hydroxybutyryl]-kanamycin B (abbreviated as 1,2'-AHB-KMB), 1,2'-di-N-[(S)-4-amino-2-hydroxybutyryl]-3',4'-dideoxykanamycin B (abbreviated as 1,2'-AHB-DKB), 1,2'-di-N-DL-isoseryl-3',4'-dideoxykanamycin B (abbreviated as 1,2'-IS-DKB) and 1,2'-di-N-DL-isoseryl-kanamycin B (abbreviated as 1,2'-IS-KMB) against various microorganisms were determined according to serial dilution method using nutrient agar medium at 37°C, the estimation being effected after 18 hours incubation. For comparison, the minimum inhibitory concentrations of kanamycin B (abbreviated as KMB) and 3',4'-dideoxykanamycin B (abbreviated as DKB) were also determined in the same manner as mentioned above.

[20] = tested on: Escherichia coli K-12 ML 1630; assay: MIC, serial dilution on nutrient agar; format: cell-based; conditions: K12ML1630, 37°C, 18 hours, read-out: Minimum Inhibitory Concentrations
Method: as §1

Shigella sonnei JS 11746 = assay: MIC, serial dilution on nutrient agar; format: cell-based; conditions: JS11746, 37°C, 18 hours, read-out: Minimum Inhibitory Concentrations
Method: as §1

Escherichia coli NIHJ = assay: MIC, serial dilution on nutrient agar; format: cell-based; conditions: Escherichia coli, 18 h, read-out: Minimum Inhibitory Concentrations
[21] = tested on: Escherichia coli LA290 R56; assay: MIC, serial dilution on nutrient agar; format: cell-based; conditions: LA290R56, 18 h, read-out: Minimum Inhibitory Concentrations
[22] = tested on: Staphylococcus aureus Terejima; assay: MIC, serial dilution on nutrient agar; format: cell-based; conditions: Staphylococcus aureus Terejima; nutrient agar, 37°C, 18 hours; read-out: Minimum Inhibitory Concentrations
Salmonella typhosa T-63 = assay: MIC, serial dilution on nutrient agar; format: cell-based; conditions: Salmonella enterica, 18 h, read-out: Minimum Inhibitory Concentrations
Escherichia coli K-12 = assay: MIC, serial dilution on nutrient agar; format: cell-based; conditions: Escherichia coli, K12, 18 h, read-out: Minimum Inhibitory Concentrations
[23] = tested on: Escherichia coli LA290 R64; assay: MIC, serial dilution on nutrient agar; format: cell-based; conditions: LA290R64, 18 h, read-out: Minimum Inhibitory Concentrations
[24] = tested on: Corynebacterium bovis 1810; assay: MIC, serial dilution on nutrient agar; format: cell-based; conditions: Corynebacterium bovis, 1810, 18 h, read-out: Minimum Inhibitory Concentrations
[25] = tested on: Bacillus subtilis NRRL B-558; assay: MIC, serial dilution on nutrient agar; format: cell-based; conditions: NRRLB558; Bacillus subtilis NRRL B-558; nutrient agar, 37°C, 18 hours; read-out: Minimum Inhibitory Concentrations
[26] = tested on: Salmonella enteritidis 1891; assay: MIC, serial dilution on nutrient agar; format: cell-based; conditions: Salmonella enterica, ENTERITIDIS, 18 h, read-out: Minimum Inhibitory Concentrations
[27] = tested on: Staphylococcus aureus FDA 209P; assay: MIC, serial dilution on nutrient agar; format: cell-based; conditions: Staphylococcus aureus, FDA209P, 18 h, read-out: Minimum Inhibitory Concentrations
[28] = tested on: Klebsiella pneumoniae PCI 602; assay: MIC, serial dilution on nutrient agar; format: cell-based; conditions: Klebsiella pneumoniae, PCI602, 18 h, read-out: Minimum Inhibitory Concentrations
[29] = tested on: Escherichia coli JR66/W677; assay: MIC, serial dilution on nutrient agar; format: cell-based; conditions: Escherichia coli, JR66/W677, 18 h, read-out: Minimum Inhibitory Concentrations

In the case of `NCC(O)C(=O)N[C@@H]1C[C@H](N)[C@@H](O[C@H]2O[C@H](CN)CC[C@H]2N)[C@H](O)[C@H]1O[C@H]1O[C@H](CO)[C@@H](O)[C@H](N)[C@H]1O` (some centres unmarked) [1-N-isoseryl-3',4'-dideoxykanamycin B], the “antibacterial activity against the drug-resistant bacteria” value (drug-resistant bacteria) is given as “effective” and the “effectiveness against bacteria sensitive to the kanamycins” value [1] is given as “effective”.
For `NC[C@H]1O[C@H](O[C@H]2[C@H](O)[C@@H](O[C@H]3O[C@H](CO)[C@@H](O)[C@H](N)[C@H]3O)[C@H](N)C[C@@H]2N)[C@H](O)C[C@@H]1O` [3'-deoxykanamycin], the “effectiveness against kanamycin-resistant strains” value [2] is given as “actually effective” and the “activity against kanamycin-resistant strains such as Escherichia coli JR66/W677” value [3] is given as “practically inactive”.
For `NCC[C@H](O)C(=O)N[C@H]1[C@@H](O[C@H]2[C@H](O)[C@@H](O[C@H]3O[C@H](CO)[C@@H](O)[C@H](N)[C@H]3O)[C@H](NC(=O)[C@@H](O)CCN)C[C@@H]2N)O[C@H](CN)[C@@H](O)[C@@H]1O` [1,2'-AHB-KMB, 1,2'-di-N-[(S)-4-amino-2-hydroxybutyryl]-kanamycin B], the MIC [4] was 6.25 µg/mL (≈ 9.11 µM), the MIC (Bacillus anthracis) was 0.39 µg/mL (≈ 0.569 µM) and the MIC (Escherichia coli W677) was 1.56 µg/mL (≈ 2.27 µM). For the same compound, the MIC [5] was 12.5 µg/mL (≈ 18.2 µM), the MIC [6] was 25 µg/mL (≈ 36.5 µM) and the MIC [7] was 12.5 µg/mL (≈ 18.2 µM). It also gave an MIC [8] of 3.13 µg/mL (≈ 4.56 µM), an MIC (Proteus vulgaris OX 19) of 3.13 µg/mL (≈ 4.56 µM) and an MIC (Sarcina lutea PCI 1001) of 6.25 µg/mL (≈ 9.11 µM). It also gave an MIC [9] of over 100 µg/mL, an MIC [10] of under 0.2 µg/mL and an MIC [11] of 50 µg/mL (≈ 72.9 µM). It also gave an MIC [12] of 3.13 µg/mL (≈ 4.56 µM), an MIC [13] of 0.78 µg/mL (≈ 1.14 µM) and an MIC [14] of 25 µg/mL (≈ 36.5 µM). For the same compound, the MIC [15] was 3.13 µg/mL (≈ 4.56 µM), the MIC [16] was 3.13 µg/mL (≈ 4.56 µM) and the MIC [17] was 12.5 µg/mL (≈ 18.2 µM). It also gave an MIC [18] of 0.39 µg/mL (≈ 0.569 µM), an MIC [19] of 12.5 µg/mL (≈ 18.2 µM) and an MIC [20] of 3.13 µg/mL (≈ 4.56 µM). For the same compound, the MIC (Shigella sonnei JS 11746) was 6.25 µg/mL (≈ 9.11 µM), the MIC (Escherichia coli NIHJ) was 6.25 µg/mL (≈ 9.11 µM) and the MIC [21] was 1.56 µg/mL (≈ 2.27 µM). For the same compound, the MIC [22] was under 0.2 µg/mL, the MIC (Salmonella typhosa T-63) was 3.13 µg/mL (≈ 4.56 µM) and the MIC (Escherichia coli K-12) was 3.13 µg/mL (≈ 4.56 µM). It also gave an MIC [23] of 1.56 µg/mL (≈ 2.27 µM), an MIC [24] of 3.13 µg/mL (≈ 4.56 µM) and an MIC [25] of 0.78 µg/mL (≈ 1.14 µM). The MIC [26] was 3.13 µg/mL (≈ 4.56 µM), the MIC [27] was 6.25 µg/mL (≈ 9.11 µM) and the MIC [28] was 3.13 µg/mL (≈ 4.56 µM). The MIC [29] was 6.25 µg/mL (≈ 9.11 µM).
